From publication PMC9948211 (ACS Omega, 2023)

Target: T1, PPAR-γ (Homo sapiens, UniProt P37231)
T1 sequence (P37231 1-505): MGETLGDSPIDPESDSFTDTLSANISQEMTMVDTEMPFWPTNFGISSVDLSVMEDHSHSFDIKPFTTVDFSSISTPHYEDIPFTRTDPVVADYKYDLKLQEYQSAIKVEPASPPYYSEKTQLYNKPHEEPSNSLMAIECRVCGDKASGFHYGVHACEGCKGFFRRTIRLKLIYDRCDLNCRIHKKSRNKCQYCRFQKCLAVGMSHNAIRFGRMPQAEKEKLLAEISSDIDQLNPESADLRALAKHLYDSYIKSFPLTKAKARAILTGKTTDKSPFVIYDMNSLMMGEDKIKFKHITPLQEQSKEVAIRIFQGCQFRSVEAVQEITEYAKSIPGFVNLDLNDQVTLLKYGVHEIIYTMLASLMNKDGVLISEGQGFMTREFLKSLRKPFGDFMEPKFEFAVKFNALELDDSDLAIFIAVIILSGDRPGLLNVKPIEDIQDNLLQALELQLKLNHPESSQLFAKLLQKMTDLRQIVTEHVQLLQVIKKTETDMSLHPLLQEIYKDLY
Test: LanthaScreen TR-FRET competitive binding assay

IC50 [µM] | SMILES
2.25 | COc1cc(CC/C(C)=N\O)ccc1OCC(=O)Nc1ccc(F)cc1 [G1, (Z)-N-(4-Fluorophenyl)-2-(4-(3-(hydroxyimino)butyl)-2-methoxyphenoxy)acetamide]
4.51 | COc1cc(CC/C(C)=N\O)ccc1OCC(=O)Nc1nccs1 [G2, (Z)-2-(4-(3-(Hydroxyimino)butyl)-2-methoxyphenoxy)-N-(thiazol-2-yl)acetamide]
